Data from patent US9096601B2 (CSPC Zhongqi Pharmaceutical Technology (Shijiazhuang) Co., …, priority 2010, dated 2015).

Key:
Assay in all cases: In-vitro tumor cell proliferation inhibition, MTT
Type in all cases: cell-based, human
[1] = tested on: non-small cell lung carcinoma cell strain H1975 (EGFR L858R/T790M mutation); details: 72 hours
Experimental: (§1) The object of this assay was to test the inventive compounds for the inhibitory activity of in-vitro tumor cell proliferation. The MTT (tetreamethyl-azo-zole-salt) colorimetric method was used in this assay.
(§2) All of the above-mentioned non-small cell lung carcinoma cell strains and the breast carcinoma cell strain BT 474 were cultured with a RPMI-1640 complete culture medium containing 10% fetal bovine serum, 100 U/ml penicillin and 100 μg/ml streptomycin under 5% CO2 and at 37° C. The other cell strains were cultured with a DMEM complete culture medium containing 10% fetal bovine serum (having a MV4-11 cell content of 20%), 100 U/ml penicillin and 100 μg/ml streptomycin under 5% CO2 and 37° C.
(§3) A cell suspension having a cell concentration of 1-2×10^4 cells/ml was treated with a complete cell culture solution to adjust the cell concentration, wherein the cell concentrations for HCC827 and MV4-11 were adjusted to 6×10^4 cells/ml and 1×10^5 cells/ml respectively. The cell suspension was inoculated in a 96-well plate with 200 μl cell suspension/well and cultured overnight. Next day, the supernatant was drawn off and discarded. Then, the cells were treated with the tested compounds in a gradient concentration respectively. In the meanwhile, a negative control group free of the drug substance and an isovolumetric solvent control group (having a DMSO concentration of 1%) were used. The triplicate wells were used for each of dose groups. The culturing was conducted at 37° C. under 5% CO2. After 72 hours, […] having a concentration of 5 mg/ml was added to each of wells. The culturing was further conducted for 2-4 hours. The supernatant was discarded. Then […] was added to each of wells. The contents in the well were mixed homogenously by oscillation for 15 minutes. The absorbance (A) value was measured with a microplate reader at λ=570 nm (the A value is in the direct proportion to the number of living cells) and averaged. The relative cell proliferation inhibitory rate is (A570 control-group−A570 dose-group)/A570 control-group×100%. The assay was repeated for at least three times. The data was expressed as number average. The statistical data were analyzed using t-test. P<0.05 was considered significant. The cell proliferation inhibition of the following compounds was expressed as IC50 or inhibitory rate.

[2] = tested on: non-small cell lung carcinoma cell strain HCC827; details: 72 hours
Experimental: as §1, §2, §3

[3] = tested on: non-small cell lung carcinoma cell strain PC-9 (EGFR delE746-A750 deletion mutation); details: 72 hours
Experimental: as §1, §2, §3

[4] = tested on: non-small cell lung carcinoma cell strain H292 (EGFR WT); details: 72 hours
Experimental: as §1, §2, §3

[5] = tested on: squamous cell carcinoma cell strain A431; details: 72 hours
Source text: as §1
(§4) Human non-small cell lung carcinoma cell strains HCC827, PC-9, H1975 (EGFR L858R/T790M mutation) and H292 (EGFR WT), and other tumor type cell strains, including human acute myelogenous leukemia cell strain MV4-11, human chronic granulocytic leukemia cell strain K562, human squamous cell carcinoma cell strain A431, human breast carcinoma cell strains MDA-MB-468 and BT 474, human colon cancer cell strains SW480, HCT116 and SW620, human liver cancer cell strain Hep G2, human gastric cancer cell strain MK-45, and human malignant melanoma cell strain A375 used in this assay were all purchased from ATCC company, USA and kept in the laboratory. All of the above-mentioned non-small cell lung carcinoma cell strains and the breast carcinoma cell strain BT 474 were cultured with a RPMI-1640 complete culture medium containing 10% fetal bovine serum, 100 U/ml penicillin and 100 μg/ml streptomycin under 5% CO2 and at 37° C. The other cell strains were cultured with a DMEM complete culture medium containing 10% fetal bovine serum (having a MV4-11 cell content of 20%), 100 U/ml penicillin and 100 μg/ml streptomycin under 5% CO2 and 37° C.
as §3

[6] = tested on: gastric cancer cell strain MK-45; details: 72 hours, read-out: MK45 (IC50)
Source text: as §1, §4, §3

[7] = tested on: malignant melanoma cell strain A375; details: 72 hours
Source text: as §1, §4, §3

[8] = tested on: chronic granulocytic leukemia cell strain K562; details: 72 hours
Source text: as §1, §4, §3

[9] = tested on: colon cancer cell strain HCT116; details: 72 hours
Source text: as §1, §4, §3

[10] = tested on: colon cancer cell strain SW620; details: 72 hours
Source text: as §1, §4, §3

[11] = tested on: breast carcinoma cell strain BT474; details: 72 hours
Source text: as §1, §4, §3

[12] = tested on: colon cancer cell strain SW480; details: 72 hours
Source text: as §1, §4, §3

[13] = tested on: acute myelogenous leukemia cell strain MV4-11; details: 72 hours
Source text: as §1, §4, §3

[14] = tested on: breast carcinoma cell strain MDA-MB-468; details: 72 hours
Source text: as §1, §4, §3

[15] = tested on: liver cancer cell strain Hep G2; details: 72 hours, read-out: HEPG2 (IC50)
Source text: as §1, §4, §3

| IC50 [1] [nM] | IC50 [2] [nM] | IC50 [3] [nM] | IC50 [4] [nM] | IC50 [5] [nM] | IC50 [6] [nM] | IC50 [7] [nM] | IC50 [8] [nM] | IC50 [9] [µM] | IC50 [10] [nM] | IC50 [11] [nM] | IC50 [12] [µM] | IC50 [13] [nM] | IC50 [14] [nM] | IC50 [15] [µM] | Structure (SMILES) |
| --- | --- | --- | --- | --- | --- | --- | --- | --- | --- | --- | --- | --- | --- | --- | --- |
| 884 | 0.3 | 16.3 | 44.2 | 299 | 1180 | 1570 | 97.2 | 6.09 | 4950 | 554 | 5.53 | 224 | 3190 | 8.46 | CN1CCN(c2ccc(Nc3ncc4nc(Nc5ccc(Br)cc5F)n(C5CCCC5)c4n3)cc2)CC1 [Compounds 8-47] |
| 4580 | 0.2 | 26.2 | 18.5 | 788 | 297 | 2080 | 230 | > 10 | 2940 | 525 | 9.89 | 583 | 2130 | > 10 | c1ccc(Nc2nc3cnc(Nc4ccc(CN5CCOCC5)cc4)nc3n2C2CCCC2)cc1 [Compounds 8-48] |
| 310 | 0.3 | 0.2 | 4.5 | 586 | 543 | 1980 | 121 | 1.44 | 1440 | 2670 | 5.04 | 193 | 987 | 9.24 | CN1CCN(c2ccc(Nc3ncc4nc(Nc5cccc(F)c5)n(C5CCCC5)c4n3)cc2)CC1 [Compounds 8-49] |
| 182 | 0.3 | 3.5 | > 10000 | 82.9 | 218 | 1560 | 30.5 | 2.47 | 964 | 2160 | 2.72 | 64.4 | 207 | 8.25 | CN1CCN(c2ccc(Nc3ncc4nc(Nc5ccccc5)n(C5CCCCC5)c4n3)cc2)CC1 [Compounds 8-50] |
| 630 | 0.2 | 9.5 | 22.3 | 248 | 248 | 539 | 11.3 | 4.14 | 733 | 764 | 6.72 | 3.6 | 351 | 8.21 | CN1CCN(c2ccc(Nc3ncc4nc(Nc5cccc(O)c5)n(C5CCCC5)c4n3)cc2)CC1 [Compounds 8-51] |

Second part, the compound before the results:

| Structure (SMILES) | IC50 [1] [nM] | IC50 [2] [nM] | IC50 [3] [nM] | IC50 [4] [nM] | IC50 [5] [nM] | IC50 [6] [nM] | IC50 [7] [nM] | IC50 [8] [nM] | IC50 [9] [µM] | IC50 [10] [nM] | IC50 [11] [nM] | IC50 [12] [µM] | IC50 [13] [nM] | IC50 [14] [nM] | IC50 [15] [µM] |
| --- | --- | --- | --- | --- | --- | --- | --- | --- | --- | --- | --- | --- | --- | --- | --- |
| Cc1nc(Nc2ccc(N3CCN(C)CC3)cc2)nc2c1nc(Nc1ccccc1)n2C(C)C [Compounds 8-34] | 6310 | 63.1 | 420 | 1230 | 2570 | 1660 | 6570 | 1600 | 10.5 | > 10000 | 2630 | 9.95 | 125 | 3260 | 8.46 |
| CN1CCN(c2ccc(Nc3ncc4nc(Nc5ccc(F)c(Cl)c5)n(C5CCCC5)c4n3)cc2)CC1 [Compounds 8-35] | 1520 | 0.2 | 1.5 | 20.3 | 635 | 1110 | 3250 | 232 | 0.676 | 2300 | 192 | 5.93 | 135 | 1920 | 4.34 |
| CN1CCN(NC(=O)c2ccc(Nc3ncc4nc(Nc5cccnc5)n(C5CCCC5)c4n3)cc2)CC1 [Compounds 8-37] | > 10000 | 130 | 348 | 5850 | > 10000 | > 10000 | > 10000 | 888 | > 10 | > 10000 | 4520 | > 10 | 102 | > 10000 | > 10 |
| CC(C)n1c(Nc2ccc(Cl)nc2)nc2cnc(Nc3ccc(N4CCN(C)CC4)cc3)nc21 [Compounds 8-41] | 501 | 16.5 | 209 | 268 | 2740 | 3340 | > 10000 | 146 | 5.43 | 2140 | 2090 | 5.4 | 1970 | 4490 | 2.2 |
| CC(C)n1c(Nc2ccc(OCc3cccc(F)c3)c(Cl)c2)nc2cnc(Nc3ccc(N4CCOCC4)cc3)nc21 [Compounds 8-42] | > 10000 | 4260 | 3320 | 673 | 2240 | 5100 | 498 | 922 | > 10 | > 10000 | 5100 | > 10 | 6640 | 1700 | > 10 |
| CN1CCN(c2ccc(Nc3ncc4nc(Nc5ccc(Br)cc5)n(C5CCCC5)c4n3)cc2)CC1 [Compounds 8-43] | 231 | 0.3 | 51.9 | 102 | 484 | 234 | 1910 | 122 | 2.57 | 5750 | 1830 | 5.75 | 21.2 | 1030 | 5.93 |
| CN1CCN(c2ccc(Nc3ncc4nc(Nc5cccc([N+](=O)[O-])c5)n(C5CCCC5)c4n3)cc2)CC1 [Compounds 8-44] | 695 | 0.3 | 1.5 | 2.9 | 409 | 1350 | 1740 | 96.5 | > 10 | 2510 | 682 | 6.16 | 1140 | 2670 | > 10 |
| CN1CCN(c2ccc(Nc3ncc4nc(NCc5ccccc5)n(C5CCCC5)c4n3)cc2)CC1 [Compounds 8-45] | 1140 | 0.2 | 9.7 | 13.9 | 1890 | 3740 | 9260 | 218 | 7.08 | 4970 | 870 | 7.75 | 59.4 | 2870 | > 10 |
| C#Cc1cccc(Nc2nc3cnc(Nc4ccc(N5CCN(C)CC5)cc4)nc3n2C2CCCC2)c1 [Compounds 8-46] | 770 | 0.3 | 3.5 | > 10000 | 426 | 417 | 400 | 250 | 9.07 | 3620 | 792 | 4.01 | 4690 | 751 | > 10 |
